Results published in patent publication US12528815B2, “5-amino-8-(4-pyridyl)-[1,2,4]triazolo[4,3-c]pyrimidin-3-one compounds for use against cancer” (Nxera Pharma UK Limited, priority 2020, dated 2026).

Experiments:
[1] = target: T1, human adenosine A1 receptor (Homo sapiens, UniProt P30542); test: Inhibition binding assay, human adenosine A1 receptor membranes, [3H]DPCPX; conditions: 1 nM [3H]DPCPX, 25° C., 1 h; IC50 converted to Ki with Cheng-Prusoff; read-out: A1 pKi (converted)
T1 construct: expressed in transfected cells; host or cells: HEK293 cells infected with BacMam (the same paragraph also labels the preparation CHO-hA1)
T1 sequence (P30542 1-326): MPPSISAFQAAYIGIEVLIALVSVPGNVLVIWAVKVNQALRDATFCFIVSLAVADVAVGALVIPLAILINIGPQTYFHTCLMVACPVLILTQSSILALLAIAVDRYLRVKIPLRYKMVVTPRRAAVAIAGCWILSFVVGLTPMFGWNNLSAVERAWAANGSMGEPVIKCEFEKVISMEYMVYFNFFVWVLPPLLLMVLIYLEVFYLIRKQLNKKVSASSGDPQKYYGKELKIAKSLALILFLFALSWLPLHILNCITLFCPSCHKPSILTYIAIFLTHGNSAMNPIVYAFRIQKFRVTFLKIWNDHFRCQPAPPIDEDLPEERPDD
Procedure, shortened: (§1)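 Membranes from BacMam-infected HEK293 cells (0.2 μg A2A, 1.4 μg A1) incubated 1 h at 25° C with test compound and 1 nM [3H]ZM241385 (A2A; 50 mM Tris-HCl pH 7.4) or [3H]DPCPX (A1; plus 100 mM NaCl, 10 mM MgCl2). Nonspecific: 1 μM CGS15943 or DPCPX. Filtration, scintillation; IC50 converted to Ki via Cheng-Prusoff.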

[2] = target: T2, human adenosine A2A receptor (Homo sapiens, UniProt P29274); test: Inhibition binding assay, human adenosine A2A receptor membranes, [3H]ZM241385; conditions: 1 nM [3H]ZM241385, HEK293-hA2A membranes, 25° C., 1 h; IC50 converted to Ki with Cheng-Prusoff; read-out: A2A pKi (converted)
T2 construct: expressed in transfected cells; host or cells: HEK293 cells infected with BacMam
Procedure, shortened: as §1

[3] = target: T3, human CB-1 cannabinoid receptor (Homo sapiens, UniProt P21554); test: CB1 receptor radioligand binding assay, [3H]CP 55940, transfected CHO cell membranes; conditions: 0.5 nM [3H]CP 55940, CHO membrane homogenates, 120 min at 37° C.
T3 construct: expressed in transfected cells; host or cells: CHO cells
Method: Nonspecific binding is determined in the presence of 10 μM WIN 55212-2.
Following incubation, the samples are filtered rapidly under vacuum through glass fiber filters (GF/B, Packard) presoaked with 0.3% PEI and rinsed several times with an ice-cold buffer containing 50 mM Tris-HCl (pH 7.4) and 0.5% BSA using a 96-sample cell harvester (Unifilter, Packard). The filters are dried then counted for radioactivity in a scintillation counter (Topcount, Packard) using a scintillation cocktail (Microscint 0, Packard).
The standard reference compound is CP 55940 which is tested in each experiment at several concentrations to obtain a competition curve from which its IC50 is calculated.

[4] = target: T4, human CB1 receptor (Homo sapiens, UniProt P21554); test: CB1 receptor antagonism, agonist-induced cAMP modulation (HTRF) in transfected CHO cells; type: cell-based; conditions: read-out: Antag IC50
T4 construct: expressed in transfected cells; host or cells: CHO cells
Method: Receptor antagonism: Evaluation of the antagonist activity of compounds at the human CB1 receptor expressed in transfected CHO cells, determined by measuring their effects on agonist-induced cAMP modulation using the HTRF detection method.
Thereafter, the reference agonist CP 55940 and the adenylyl cyclase activator NKH 477 are added at respective final concentrations of 3 nM and 3 μM.
For basal control measurements, CP 55940 is omitted from the wells containing 3 μM AM 281.
Following 20 min incubation at 37° C., the cells are lysed and the fluorescence acceptor (D2-labeled cAMP) and fluorescence donor (anti-cAMP antibody labeled with europium cryptate) are added.
After 60 min at room temperature, the fluorescence transfer is measured at λex=337 nm and λem=620 and 665 nm using a microplate reader (Rubystar, BMG). The cAMP concentration is determined by dividing the signal measured at 665 nm by that measured at 620 nm (ratio).
The standard reference antagonist is AM 281, which is tested in each experiment at several concentrations to generate a concentration-response curve from which its IC50 value is calculated.

T2 sequence (P29274 whole entry): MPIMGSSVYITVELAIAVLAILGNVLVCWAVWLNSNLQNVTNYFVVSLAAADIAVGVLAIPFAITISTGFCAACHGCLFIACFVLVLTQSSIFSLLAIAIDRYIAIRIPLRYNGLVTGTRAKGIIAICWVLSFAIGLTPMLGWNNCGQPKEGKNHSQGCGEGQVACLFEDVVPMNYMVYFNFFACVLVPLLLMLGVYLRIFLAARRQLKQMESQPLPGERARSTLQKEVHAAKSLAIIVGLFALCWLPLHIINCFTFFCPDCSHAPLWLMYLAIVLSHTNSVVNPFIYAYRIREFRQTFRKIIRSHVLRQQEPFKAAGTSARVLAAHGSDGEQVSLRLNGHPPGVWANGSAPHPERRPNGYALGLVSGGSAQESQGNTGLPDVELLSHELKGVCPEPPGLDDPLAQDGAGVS
T4 sequence (P21554 whole entry): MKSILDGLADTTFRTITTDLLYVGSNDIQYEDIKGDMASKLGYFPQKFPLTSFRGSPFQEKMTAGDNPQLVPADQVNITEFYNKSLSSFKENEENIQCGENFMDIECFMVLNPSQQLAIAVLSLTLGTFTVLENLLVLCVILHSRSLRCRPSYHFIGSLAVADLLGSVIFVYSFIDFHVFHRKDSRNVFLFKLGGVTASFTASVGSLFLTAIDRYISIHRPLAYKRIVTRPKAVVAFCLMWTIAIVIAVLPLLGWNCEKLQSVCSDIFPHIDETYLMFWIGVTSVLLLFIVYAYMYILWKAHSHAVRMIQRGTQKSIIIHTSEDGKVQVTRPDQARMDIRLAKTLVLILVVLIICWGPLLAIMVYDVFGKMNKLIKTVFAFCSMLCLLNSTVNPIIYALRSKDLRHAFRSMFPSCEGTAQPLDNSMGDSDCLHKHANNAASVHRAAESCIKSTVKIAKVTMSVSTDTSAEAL
T3 sequence (P21554 whole entry): as above

SMILES | Ki [1] | Ki [2] | Ki [3] | IC50 [4]
Cc1cc(-c2c(-c3ccccc3)nc(N)n3c(=O)n(CCC(F)(F)F)nc23)cc(C)n1 [Example 2-6, 5-amino-8-(2,6-dimethyl-4-pyridyl)-7-phenyl-2-(3,3,3-trifluoropropyl)-[1,2,4]triazolo[4,3-c]pyrimidin-3-one] | 501 nM | 2 nM | 22000 nM | 26500 nM
Cc1cc(-c2c(-c3ccc(F)cc3)nc(N)n3c(=O)n(Cc4cccnn4)nc23)cc(C)n1 [Example 1-41, 5-amino-8-(2,6-dimethyl-4-pyridyl)-7-(4-fluorophenyl)-2-(pyridazin-3-ylmethyl)-[1,2,4]triazolo[4,3-c]pyrimidin-3-one] | 398 nM | 2.51 nM | 45600 nM | 43100 nM
Cc1cc(-c2c(-c3ccccc3)nc(N)n3c(=O)n(Cc4ccc(F)cn4)nc23)cc(N2CCC2)n1 [Example 1-75, 5-amino-8-[2-(azetidin-1-yl)-6-methyl-4-pyridyl]-2-[(5-fluoro-2-pyridyl)methyl]-7-phenyl-[1,2,4]triazolo[4,3-c]pyrimidin-3-one] | 126 nM | 3.16 nM | 39100 nM | 17900 nM
Cc1cc(-c2c(-c3ccccc3)nc(N)n3c(=O)n(CC4CCOCC4)nc23)cc(C)n1 [Example 2-73, 5-amino-8-(2,6-dimethyl-4-pyridyl)-7-phenyl-2-(tetrahydropyran-4-ylmethyl)-[1,2,4]triazolo[4,3-c]pyrimidin-3-one] | 1000 nM | 2 nM | 52000 nM | > 100000 nM
Cc1cc(-c2c(-c3ccccc3)nc(N)n3c(=O)n(CC45C6C7C4C4C5C6C74F)nc23)cc(CO)n1 (stereo not drawn) [Example 2-60, 5-amino-2-[(4-fluorocuban-1-yl)methyl]-8-[2-(hydroxymethyl)-6-methyl-4-pyridyl]-7-phenyl-[1,2,4]triazolo[4,3-c]pyrimidin-3-one] | 200 nM | 7.94 nM | 14600 nM | 2400 nM
Nc1nc(-c2ccccc2)c(-c2cc(CO)nc(C(F)(F)F)c2)c2nn(CCC(F)(F)F)c(=O)n12 [Example 2-53, 5-amino-8-[2-(hydroxymethyl)-6-(trifluoromethyl)-4-pyridyl]-7-phenyl-2-(3,3,3-trifluoropropyl)-[1,2,4]triazolo[4,3-c]pyrimidin-3-one] | 501 nM | 1.26 nM | 37700 nM | > 100000 nM
Cc1cc(-c2c(-c3ccccc3)nc(N)n3c(=O)n(Cc4ccc(F)cn4)nc23)cc(C)[n+]1[O-] [Example 1-42, 5-amino-8-(2,6-dimethyl-1-oxido-pyridin-1-ium-4-yl)-2-[(5-fluoro-2-pyridyl)methyl]-7-phenyl-[1,2,4]triazolo[4,3-c]pyrimidin-3-one] | 251 nM | 15.8 nM | 73400 nM | > 100000 nM
Cc1cc(-c2c(-c3ccc(F)cn3)nc(N)n3c(=O)n(CCC(F)(F)F)nc23)cc(C)n1 [Example 2-40, 5-amino-8-(2,6-dimethyl-4-pyridyl)-7-(5-fluoro-2-pyridyl)-2-(3,3,3-trifluoropropyl)-[1,2,4]triazolo[4,3-c]pyrimidin-3-one] | > 3160 nM | 39.8 nM | 75700 nM | > 100000 nM
Cc1cc(-c2c(-c3ccccc3)nc(N)n3c(=O)n(CCOC(F)(F)F)nc23)cc(C)n1 [Example 2-30, 5-amino-8-(2,6-dimethyl-4-pyridyl)-7-phenyl-2-[2-(trifluoromethoxy)ethyl]-[1,2,4]triazolo[4,3-c]pyrimidin-3-one] | 251 nM | 2.51 nM | 26500 nM | 19500 nM
Cc1cc(-c2c(-c3ccccc3)nc(N)n3c(=O)n(Cc4ccc(F)cn4)nc23)cc(CO)n1 [Example 1-44, 5-amino-2-[(5-fluoro-2-pyridyl)methyl]-8-[2-(hydroxymethyl)-6-methyl-4-pyridyl]-7-phenyl-[1,2,4]triazolo[4,3-c]pyrimidin-3-one] | 398 nM | 1.58 nM | 40000 nM | 63300 nM
Cc1cc(-c2c(-c3ccccc3)nc(N)n3c(=O)n(CC(C)C)nc23)cc(C)[n+]1[O-] [Example 2-57, 5-amino-8-(2,6-dimethyl-1-oxido-pyridin-1-ium-4-yl)-2-isobutyl-7-phenyl-[1,2,4]triazolo[4,3-c]pyrimidin-3-one] | 251 nM | 10 nM | 72700 nM | > 100000 nM
Nc1nc(Cn2nc3c(-c4cc(Cl)nc(CO)c4)c(-c4ccccc4)nc(N)n3c2=O)ccc1F [Example 1-70, 5-amino-2-[(6-amino-5-fluoro-2-pyridyl)methyl]-8-[2-chloro-6-(hydroxymethyl)-4-pyridyl]-7-phenyl-[1,2,4]triazolo[4,3-c]pyrimidin-3-one] | 50.1 nM | 0.316 nM | 61300 nM | > 100000 nM
COc1cc(-c2c(-c3ccccc3)nc(N)n3c(=O)n(CCC(F)(F)F)nc23)cc(CO)n1 [Example 2-46, 5-amino-8-[2-(hydroxymethyl)-6-methoxy-4-pyridyl]-7-phenyl-2-(3,3,3-trifluoropropyl)-[1,2,4]triazolo[4,3-c]pyrimidin-3-one] |  | 1 nM | 61000 nM | > 100000 nM

The next compounds have a lower Ki [3] than those just listed; values first:

Ki [1] | Ki [2] | Ki [3] | IC50 [4] | SMILES
10 nM | 0.631 nM | 4000 nM | 2700 nM | Cc1cc(-c2c(-c3ccccc3)nc(N)n3c(=O)n(C[C@@H]4COCCN4Cc4ccccc4)nc23)cc(C)n1 [Example 1-101, 5-amino-2-[[(3R)-4-benzylmorpholin-3-yl]methyl]-8-(2,6-dimethyl-4-pyridyl)-7-phenyl-[1,2,4]triazolo[4,3-c]pyrimidin-3-one]
398 nM | 6.31 nM | 2600 nM | 5000 nM | Cc1cc(-c2c(-c3ccccc3)nc(N)n3c(=O)n(C(C)c4ccc(F)cc4F)nc23)cc(C)n1 (stereo not drawn) [Example 1-11, 5-amino-2-[1-(2,4-difluorophenyl)ethyl]-8-(2,6-dimethyl-4-pyridyl)-7-phenyl-[1,2,4]triazolo[4,3-c]pyrimidin-3-one]
398 nM | 6.31 nM | 8200 nM | 1100 nM | Cc1cc(-c2c(-c3ccccc3)nc(N)n3c(=O)n(C4CCCN(C(=O)OC(C)(C)C)C4)nc23)cc(C)n1 (stereo not drawn) [Example 2-54, tert-butyl 3-[5-amino-8-(2,6-dimethyl-4-pyridyl)-3-oxo-7-phenyl-[1,2,4]triazolo[4,3-c]pyrimidin-2-yl]piperidine-1-carboxylate]
100 nM | 0.398 nM | 3900 nM | 3500 nM | Cc1cc(-c2c(-c3ccccc3)nc(N)n3c(=O)n(CC4CCC(F)(F)C4)nc23)cc(C)n1 (stereo not drawn) [Example 2-26, 5-amino-2-[(3,3-difluorocyclopentyl)methyl]-8-(2,6-dimethyl-4-pyridyl)-7-phenyl-[1,2,4]triazolo[4,3-c]pyrimidin-3-one]
31.6 nM | 0.398 nM | 3600 nM | 1700 nM | Cc1cc(-c2c(-c3ccccc3)nc(N)n3c(=O)n(Cc4ccc(F)cc4)nc23)cc(C)n1 [Example 1-1, 5-amino-8-(2,6-dimethyl-4-pyridyl)-2-[(4-fluorophenyl)methyl]-7-phenyl-[1,2,4]triazolo[4,3-c]pyrimidin-3-one]
126 nM | 2 nM | 10800 nM | 10200 nM | Cc1cc(-c2c(-c3ccccc3)nc(N)n3c(=O)n(CCc4ccccc4)nc23)cc(C)n1 [Example 1-80, 5-amino-8-(2,6-dimethyl-4-pyridyl)-7-phenyl-2-(2-phenylethyl)-[1,2,4]triazolo[4,3-c]pyrimidin-3-one]
